Measurements reported in US9040071B2, “Pary-xylene based microfilm elution devices” (Cute Lovable Teddy Bear, LLC., priority 2009, dated 2015).
Counter-ions that a name gives are not always drawn.

Legend:
Type in all cases: physicochemical
[1] = Doxorubicin-HCl elution, multilayer laminate vs single layer barrier, in water and media (Example 5); conditions: for elution rate: compared with 0.05 gram-layer constructs
[2] = Therapeutic spreading on unoxidized vs oxidized parylene layer (Example 1)
Text: Referring to FIG. 4, Example 1 is an experiment to compare therapeutic spreading with respect to an unoxidized parylene layer and an oxidized parylene layer. The therapeutic analyte was Doxorubicin-HCl. Doxorubicin-HCl is the salt version of the anti-cancer chemotherapeutic Doxorubicin: (8S,10S)-8-acetyl-10-[(2S,4S,5S,6S)-4-amino-5-hydroxy-6-methyl-oxan-2-yl]oxy-6,8,11,14-tetrahydroxy-1-methoxy-9,10-dihydro-7H-tetracene-5,12-dione, having four fused six member rings of which two are unsaturated and one is a dione and a pendant sugar group The Doxorubicin-HCl has a red color and is easily visualized with no additional modification.
FIG. 5 is plot of therapeutic intensity vs. distance a from the a peripheral margin along a great diameter. Discarding values at the margin, for unoxidized paralyene there are two peaks and three troughs with amplitude variation ranging from about 0.009 to about 0.012 with units being arbitrary values of intensity measurement. In contrast, for oxidized paralyene, there are no significant peaks or troughs and near constant intensity at about 0.008.

[3] = Paclitaxel elution from parylene devices (Example 9); conditions: uncovered devices (no top layer); PBS, 37 degrees Celsius; judged by visualization of the devices
Text: Referring to FIG. 14, Example 9 is an experiment to test the elution of paclitaxel (taxol). Paclitaxel is smaller hydrophobic molecule drug and has the chemical composition of (2α,4α,5β,7β,10β,13α)-4,10-bis(acetyloxy)-13-{[(2R,3S)-3-(benzoylamino)-2-hydroxy-3-phenylpropanoyl]oxy}-1,7-dihydroxy-9-oxo-5,20-epoxytax-11-en-2-yl benzoate. It is a microtubule stabilizing therapeutic with anti-cancer properties.
A series of trilayer devices were constructed having a top barrier layer having a mass of 0.3, 0.45, or 0.6 gram oxidized parylene.
Devices containing no top layer (uncovered) were not maintained as part of these experiments in that all of the drug is released from uncovered devices within the first 24 hours. […] With rapidly increasing concentration, the paclitaxel rapidly precipitates out of solution (visible by the accumulation of white precipitate) making quantification of the released drug impossible. Drug release from uncovered devices was determinable by the visualization of the devices and noticing the lack of drug on their surfaces.
For each time point, peak absorbance was measured at 230 nanometers at which paclitaxel is readily detectable.

[4] = oxidized parylene relative to unoxidized parylene, 50 μg desiccated, two replicates

drug release vs single layer device of 0.05 gram laminate ([1]; media, multilayer laminate 3×0.05 grams) | drug release vs single layer device of 0.05 gram laminate ([1]; media, multilayer laminate 5×0.05 grams) | drug release vs single layer device of 0.05 gram laminate ([1]; media, multilayer laminate 7×0.05 grams) | elution profile compared among constructs ([1]; media, multilayer laminate constructs of 3×0.05, 5×0.05 and 7×0.05 grams) | drug release ([1]; media, single layer laminate device of 0.15 grams, regular parylene C) | drug release ([1]; media, single layer laminate device of 0.25 grams, regular parylene C) | drug release ([1]; media, single layer laminate device of 0.35 grams, regular parylene C) | elution profile compared among constructs ([1]; water, constructs of 1×0.05, 3×0.05, 5×0.05 and 7×0.05 grams) | elution rate ([1]; water, single layer laminate device of 0.15 grams) | elution rate ([1]; water, single layer laminate device of 0.25 grams) | drug release ([1]; water, single layer laminate device of 0.35 grams) | radius of stained area [2, 4] | surface area of stained area [2, 4] | time within which all of the drug is released [3] | Structure (SMILES) | therapeutic intensity ([2]; oxidized parylene, no significant peaks or troughs, near constant)
release less drug | release less drug | release less drug | approximately the same elution profile | do not release the drug | do not release the drug | do not release the drug | approximately the same elution profile | slower elution | slower elution | does not release the drug | about twice the radius | four times the surface area |  | COc1cccc2c1C(=O)c1c(O)c3c(c(O)c1C2=O)C[C@@](O)(C(=O)CO)C[C@@H]3O[C@H]1C[C@H](N)[C@H](O)[C@H](C)O1 [Doxorubicin-HCl] | about 0.008 arbitrary values of intensity measurement
 |  |  |  |  |  |  |  |  |  |  |  |  | ≤ 24 h | CC(=O)O[C@H]1C(=O)[C@@]2(C)[C@H]([C@H](OC(=O)c3ccccc3)[C@]3(O)C[C@H](OC(=O)[C@H](O)[C@@H](NC(=O)c4ccccc4)c4ccccc4)C(C)=C1C3(C)C)[C@]1(OC(C)=O)CO[C@@H]1C[C@@H]2O [paclitaxel, (2α,4α,5β,7β,10β,13α)-4,10-bis(acetyloxy)-13-{[(2R,3S)-3-(benzoylamino)-2-hydroxy-3-phenylpropanoyl]oxy}-1,7-dihydroxy-9-oxo-5,20-epoxytax-11-en-2-yl benzoate] | 
